The text below walks through data of patent EP0028063A1, “Phenol derivatives, processes for their preparation and pharmaceutical compositions containing them” (GLAXO GROUP LIMITED, priority 1979, dated 1981).

The subject of one series is SRS-A. Briefly: Antagonism of the action of SRS-A on guinea-pig isolated ileum (method of Coleman et al.; pA2 by Arunlakshana and Schild). Type of series: cell-based. To be noted: Cavia porcellus, SRS-A induced contraction, compounds tested at concentrations of 10^-6 M. The source says:
The compounds according to the invention are potent antagonists of the action of slow reacting substance of anaphylaxis (SRS-A) as shown by their ability to inhibit the SRS-A induced contraction of guinea pig ileum (Coleman et al, Br. J. Pharmacol., 1979, 66, 83P). SRS-A is a naturally occurring substance which causes contraction of smooth muscle, especially bronchial muscle, and increases vascular permeability. The substance is not normally present in human tissue but is synthesised and released from certain cells during an allergic reaction. The compounds according to the invention are thus indicated for use in the treatment of disorders in which SRS-A may be a factor, for example, in obstructive airways diseases such as asthma, in hay fever and in skin afflictions.
The ability of the compounds to act as antagonists of the action of SRS-A was shown using guinea-pig isolated ileum according to the methods of Coleman et al, Br. J. Pharmacol., (1979), 66, 83P. Compounds were tested at concentrations of 10^-6 M and pA2 values were determined using the standard procedures of Arunlalkshana and Schild, Br. J. Pharmac.

The test system of another series is dogs. The series can be described thus: Oral tolerability in dogs. Type of series: in vivo. The note with it: given orally to dogs at doses of up to 10 mg/kg. The source says:
The compounds are in general non-toxic at therapeutically useful doses.

Turning to `CCCc1c(OCCCOc2ccc(OCC(=O)O)cc2)ccc(C(C)=O)c1O` [Example 1g], the Kb – broadly, the equilibrium dissociation constant of an antagonist, usually derived from a functional assay – in the series on SRS-A is 100 nM. As for `CCCc1c(OCCCOc2cccc(C=CC(=O)O)c2)ccc(C(C)=O)c1O` [Example 2a, 3-[3-[3-(4-Acetyl-3-hydroxy-2-propylphenoxy)propoxy]-phenyl]-2-propenoic acid], the adverse effects entry in the series with dogs is reported as “no adverse effects”. In the series with SRS-A, this compound had an antagonist equilibrium constant (Kb) of 39.8 nM. `CCCc1c(OCCCOc2ccc(C(=O)O)c(O)c2CCC)ccc(C(C)=O)c1O` [Example 2c, 4-(3-(4-Aceltyl-3-hydroxy-2-propylphenoxy)propoxy] -2-hydroxy-3-propylbenzoic acid] showed an antagonist dissociation constant (Kb) in the series on SRS-A of 39.8 nM. On the same count and under the same terms, in the case of `CCCc1c(OCCCCCOc2cccc(C=CC(=O)O)c2)ccc(C(C)=O)c1O` [Example 4b, 3-[3-[5-(4-Acetyl-3-hydroxy-2-propylphenoxy)pentyloxy]phenyl]-2-propenoic acid] it was 50.1 nM. Consider `CCCc1c(OCCCOc2cccc(CCC(=O)O)c2)ccc(C(C)=O)c1O` [Example 5, 3-[3-(4-Acetyl-3-hydroxy-2-propylphenoxy)propoxy]bepzene propanoic acid], for which, in the series on dogs, the adverse effects entry was “no adverse effects”. In addition, the Kb with SRS-A was 50.1 nM. For `CCCc1c(OCCCOc2ccc(C(=O)O)c(O)c2)ccc(C(C)=O)c1O` [Example 8, 4-[3-(4-Acetyl-3-hydroxy-2-propylphcnoxy)propoxy]-2-hydroxybenzoic acid] the same measures were “no adverse effects” and 15.8 nM. `CCCc1c(OCCCOc2cc(C=CC(=O)O)ccc2[N+](=O)[O-])ccc(C(C)=O)c1O` [Example 9b, 3-[3-[3-[4-Acetyl-3-hydroxy-2-propylphenoxy]propoxy]-4-nitrophenyl]-2-propenoic acid] gave a Kb with SRS-A of 31.6 nM. In the series with SRS-A, `CCCc1c(OCCCOc2cccc(-c3nn[nH]n3)c2)ccc(C(C)=O)c1O` [Example 10b, 5-[3-[3-[4-Acetyl-3-hydroxy-2-propylphenoxy]propoxy]-phenyl]-lH-tetrazole] showed a Kb of 79.4 nM.
